The subject of data set [1] is brine shrimp (Artemia salina) larva. The data set can be described thus: Brine shrimp larva lethality test. In kind it is in vivo. The conditions noted are these: brine shrimp larvae, 24 h at 28 °C; read-out: Larvicidal Activity (LC50). The protocol: (§1) Compounds 1‒10 were evaluated for larvicidality using the brine shrimp (Artemia salina) larva lethality test. 0.15 g of frozen eggs of brine shrimp larva (purchased from Aijia Aquarium Co., Zhanjiang, China) were activated at room temperature for 12 h. After activation, eggs were added to 1 L of artificial seawater (3% sea salt), ventilated with air for 420 mL/min, then kept at a brightness at 1000 lux and incubated at 28 °C for 24 h. After incubation, the larvae were induced to the top of the separating funnel by phototaxis, and the dead ones on bottom were discharged. Then, in each well of the 96-well plate, 1 μL of test compounds (in DMSO) with different concentrations and 99 μL of seawater containing 20‒30 live larvae were added. After incubation under light at 28 °C for 24 h, recorded the numbers of dead larvae. Finally, 10 μL of the Lucus reagent were added into each well and the total number of brine shrimp larva in the well were counted. DMSO and Hg(NO3)2 were used as blank control and positive control, respectively. Lethality rate (%)=(lethality of treatment−lethality of blank control)/survival rate of blank control×100%
(§2) The brine shrimp larva LC50 value is the concentration required to kill 50% of the larvae. Likewise, the LC50 was calculated using Origin 8.0 plotting and cubic polynomial regression.

Data set [2] concerns Candida albicans (ATCC 10231). The data set can be described thus: Antimicrobial paper disc diffusion method. To be noted: Candida albicans, ATCC10231; C. albicans; 10 μg per disc; paper disc diameter 6.0 mm; mean ± SD of three replicates. It is filed as cell-based. The protocol:
(§3) Preliminary antimicrobial tests for compounds 1‒10 were carried out against pathogenetic strains, including Pseudomonas aeruginosa (ATCC 9027), methicillin-resistant Staphylococcus aureus (A7983, clinical isolate donated by Zhijun Yu in Dalian Friendship Hospital, Dalian, China), Vibrio parahemolyticus (ZouB, aquatic pathogen donated by Chongqing Wen in College of Fishery, Guangdong Ocean University, Zhanjiang, China), and Candida albicans (ATCC 10231) using the disc diffusion method. Muller Hinton agar (MHA) and Sabouraud agar (SA) were used for antibacterial and antifungal tests, respectively. For each sample, 10 μg was added onto paper disc (diameter of 6 mm) for tests. The minimum inhibition concentrations (MICs) of the compounds were tested using microdilution methods. Ampicillin and ketoconazole were taken as positive controls for antibacterial and antifungal tests, respectively. Solvents (MeOH and DMSO) were used as blank controls.

Data set [3] relates to Pseudomonas aeruginosa (ATCC 9027). The data set can be described thus: Antimicrobial paper disc diffusion method. The conditions noted are these: Pseudomonas aeruginosa, ATCC9027; P. aeruginosa; 10 μg per disc; paper disc diameter 6.0 mm; mean ± SD of three replicates. In kind it is cell-based. The protocol: as §3
Data set [4] deals with Vibrio parahemolyticus (ZouB). The data set can be described thus: Antimicrobial paper disc diffusion method. It is filed as cell-based. The conditions noted are these: Vibrio; V. parahemolyticus; incomplete inhibition; 10 μg per disc; paper disc diameter 6.0 mm; mean ± SD of three replicates. The protocol:
as §3

Data set [5] concerns methicillin-resistant Staphylococcus aureus (A7983, clinical isolate). The data set can be described thus: Antimicrobial paper disc diffusion method. It is filed as cell-based. To be noted: Staphylococcus aureus, MRSA. The protocol: as §3
The test system of data set [6] is Candida albicans (ATCC 10231). The data set can be described thus: Antimicrobial microdilution method (MIC). To be noted: ATCC10231, C. albicans. In kind it is cell-based. The protocol:
as §3

For data set [7], the system named is Pseudomonas aeruginosa (ATCC 9027). The data set can be described thus: Antimicrobial microdilution method (MIC). It is filed as cell-based. The conditions noted are these: ATCC9027, P. aeruginosa. The protocol: as §3
The test system of data set [8] is methicillin-resistant Staphylococcus aureus (A7983, clinical isolate). The data set can be described thus: Antimicrobial microdilution method (MIC). It is filed as cell-based. To be noted: MRSA. The protocol: as §3
Data set [9] deals with Vibrio parahemolyticus (ZouB). The data set can be described thus: microbe, parasite or virus in culture. It is filed as cell-based. The conditions noted are these: Vibrio. The protocol: as §3
The target in data set [10] is T1, Acetylcholinesterase (AChE, from electric eels) (Electrophorus electricus, UniProt O42275).
T1 construct: purchased Sigma-Aldrich
T1 sequence (O42275 24-633): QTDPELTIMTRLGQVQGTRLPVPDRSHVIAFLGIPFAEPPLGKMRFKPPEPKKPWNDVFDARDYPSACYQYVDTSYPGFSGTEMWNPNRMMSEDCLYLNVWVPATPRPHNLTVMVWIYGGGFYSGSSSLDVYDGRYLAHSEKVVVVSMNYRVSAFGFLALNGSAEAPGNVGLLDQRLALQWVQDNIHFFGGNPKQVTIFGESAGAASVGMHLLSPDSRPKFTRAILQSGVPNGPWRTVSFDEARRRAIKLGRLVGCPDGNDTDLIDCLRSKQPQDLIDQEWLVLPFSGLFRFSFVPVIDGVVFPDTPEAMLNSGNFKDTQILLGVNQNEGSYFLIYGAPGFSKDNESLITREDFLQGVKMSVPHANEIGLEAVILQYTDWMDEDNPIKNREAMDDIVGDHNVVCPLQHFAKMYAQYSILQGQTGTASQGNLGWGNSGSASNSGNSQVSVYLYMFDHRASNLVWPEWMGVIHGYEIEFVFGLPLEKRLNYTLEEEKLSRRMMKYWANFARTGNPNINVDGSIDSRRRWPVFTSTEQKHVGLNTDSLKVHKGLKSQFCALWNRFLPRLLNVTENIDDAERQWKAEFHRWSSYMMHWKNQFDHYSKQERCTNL
The data set can be described thus: AChE inhibition assay (modified Ellman's method). It is filed as biochemical. To be noted: AChE Inhibitory Activity (IC50), 0.2 U/mL, 37 °C. The protocol: Acetylcholinesterase (AChE, from electric eels), acetythiocholine iodide (ATCh), 5,5-dithiobis-(2-nitrobenzoic acid) (DTNB), and bovine serum albumin (BSA, A1933) were purchased from Sigma-Aldrich. 100 mM PBS (pH = 7.4) was prepared with K2HPO4 and KH2PO4. In vitro AChE inhibitory activity was measured in 96-well plates using modified Ellman’s methods. […] Each well contained 1 μL of prepared sample, 49 μL of PBS, 10 μL of enzyme with a final concentration of 0.2 U/mL in BSA ([…] in PBS), and 20 μL of DTNB (5 mM in PBS). Then, the plates were preincubated at 37 °C for 10 min. Afterwards, 20 μL of ATCh (10 mM in PBS) was added into the well. After incubation at 37 °C for 20 min, the 96-well plates were read at 405 nm on the microplate reader, and the inhibition ratios to AChE were calculated using the following equation, where Asample blank stands for the absorbance of a well without enzyme, Asample stands for the absorbance of the treatment, Acontorl stands for the absorbance of the well without the sample, and Ablank stands for the absorbance of the well without the sample and enzyme. Donepezil was taken as a positive control. Inhibition of AChE (%)=[(Acontrol−Ablank)−(Asample−Asample blank)]/(Acontrol−Ablank)×100%
The inhibition rates and concentration logarithm (lnC) values were imported into the Origin 8.0 software (OriginLab Co., Ltd., Northampton, MA, USA). The cubic polynomial regression equation was used to calculate ln(IC50). Then, IC50 was calculated using Microsoft Excel.

A short description of data set [11]: DPPH free radical scavenging assay. The conditions noted are these: 0.16 mM DPPH, 30 min in darkness at room temperature. The protocol: The free radical scavenging potentials of compounds 1‒10 were evaluated in 96-well plates using the DPPH free radical scavenging assay described by Sharma and Bhat. A total of 100 μL of the reaction mixture was composed of 50 μL of 0.16 mM DPPH (Sigma-Aldrich, St. Louis, MO, USA) in methanol and 50 μL of the test compound (in DMSO) with different concentrations (Asample). The reaction mixture was incubated for 30 min in darkness at room temperature. Meanwhile, 50 μL of 0.16 mM DPPH with 50 μL of DMSO was used as control (Acontrol), 50 μL of methanol and 50 μL of different concentrations of the test compound in DMSO were used as the sample blanks (Asample blank), 50 μL methanol with 50 μL DMSO was used as the blank (Ablank), while vitamin C was taken as a positive control. The absorbance was measured at 517 nm on the microplate reader. Scavenging capacity (%)=[(Acontrol−Ablank)−(Asample−Asample blank)]/(Acontrol−Ablank)×100%
The EC50 value is the concentration required to scavenge 50% of DPPH radicals. Likewise, the EC50 was calculated using Origin 8.0 plotting and cubic polynomial regression.

Data set [12] is described as follows: Brine shrimp larva lethality test. It is filed as in vivo, Artemia salina. To be noted: Artemia salina (brine shrimp) larvae, live brine shrimp larvae in 96-well plate, other: immersion in seawater containing the compound, 24 h at 28 °C, read-out: Larvicidal Activity (LC50). The protocol: as §1, §2

SMILES strings stand for the structures. Values after ≈ are worked out from the molar mass of the structure shown. Where only a bound is given, the exact number is not on record here.

In the case of `O=[N+]([O-])[O-].O=[N+]([O-])[O-].[Hg+2]` [Hg(NO3)2, reference compound], in data set [1], the LC50 is 77 µM.

Turning to `CC=C(C)c1cc(O)c(C)c2c1Oc1cc(O)c(Cl)c(C)c1C(=O)O2` [Compound 8, 2-chlorounguinol], the zone of inhibition at 10 µg/disc in [2] stood at 10 mm; in data set [3], 11.1 ± 0.2 mm; in data set [4], 8.3 ± 0.6 mm; in data set [5], 17 mm. Further, the MIC was greater than 102 µM in [6], 51.2 µM (≈ 18.5 µg/mL) in data set [7], 25.6 µM (≈ 9.24 µg/mL) in [8] and greater than 102 µM in [9]. In [10], this molecule showed an IC50 greater than 102 µM. In [11], this molecule showed an EC50 greater than 102 µM. Besides, the LC50 at 24 h in data set [12] was 75.9 µM.

On to `C/C=C(\C)c1cc(OC(=O)c2c(C)cc(O)cc2O)c(C)c(O)c1C(=O)O` [Compound 1, (E)-6-(but-2-en-2-yl)-4-((2,4-dihydroxy-6-methylbenzoyl)oxy)-2-hydroxy-3-methylbenzoic acid], for which the zone of inhibition at 10 µg/disc in data set [2] turned out to be 8.3 ± 0.6 mm; in data set [3], 7.7 ± 0.6 mm; in data set [4] it was 9.3 ± 0.6 mm; in data set [5] it was 12 ± 1 mm. In addition, the MIC in [6] is 12.8 µM (≈ 4.77 µg/mL); in [7], 102 µM (≈ 38.1 µg/mL); in [8], 51.2 µM (≈ 19.1 µg/mL); in data set [9], greater than 102 µM. The molecule also yielded a half-inhibitory concentration (IC50) in data set [10] greater than 102 µM. The 50% effective concentration (EC50) in data set [11] was greater than 102 µM. Also, in data set [12], the LC50 at 24 h was greater than 102 µM.
